Measured values as given in patent publication US8148099B2, “Process for determining S-nitrosothiols in biological fluids” (Universita' Di Pisa, priority 2006, dated 2012).

How the values were obtained:
[1] = biological target: T1, γ-glutamyltranspeptidase (GGT) (Homo sapiens, UniProt P19440); conditions: read-out: Km constant (Michaelis-Menten kinetic constant) of GGT; substance as substrate of GGT; cited from earlier work
[2] = biological target: T1, γ-glutamyltranspeptidase (GGT); assay: Decomposition kinetics of GSNO, absorbance at 334 nm (FIG. 1); assay type: biochemical
Protocol: GSNO has a absorption band at 334 nm. […] In FIG. 1 in particular, the decomposition kinetics is shown of 50 uM GSNO with GGT 525 mU/mL added at the time t=0. In ordinates the absorbance at 334 nm is shown. […]
At the addition of GGT 525 mU/mL the decrease is observed of the absorbance at 334 nm that indicates the decomposition of GSNO (curve a of FIG. 1). GSNO is quantitatively decomposed, in the adopted operative conditions, in 450 sec.

[3] = blood; cited from earlier work

T1 sequence (P19440 whole entry, species assumed): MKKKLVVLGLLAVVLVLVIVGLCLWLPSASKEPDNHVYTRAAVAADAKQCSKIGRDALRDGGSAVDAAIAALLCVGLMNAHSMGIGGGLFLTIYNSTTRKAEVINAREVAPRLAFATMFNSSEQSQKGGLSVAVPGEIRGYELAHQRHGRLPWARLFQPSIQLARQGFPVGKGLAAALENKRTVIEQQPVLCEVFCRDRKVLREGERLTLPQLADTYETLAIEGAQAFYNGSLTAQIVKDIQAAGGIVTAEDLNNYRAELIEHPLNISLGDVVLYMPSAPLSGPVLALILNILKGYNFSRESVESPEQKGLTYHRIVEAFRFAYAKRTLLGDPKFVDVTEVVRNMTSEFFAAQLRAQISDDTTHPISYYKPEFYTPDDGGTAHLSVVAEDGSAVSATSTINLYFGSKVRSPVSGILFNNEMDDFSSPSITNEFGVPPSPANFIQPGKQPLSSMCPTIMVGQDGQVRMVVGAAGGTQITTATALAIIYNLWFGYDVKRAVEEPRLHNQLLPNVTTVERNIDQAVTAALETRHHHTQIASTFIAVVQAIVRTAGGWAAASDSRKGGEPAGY

Structure (SMILES)	Km [1] [µM]	time for quantitative decomposition of GSNO ([2]; 50 uM GSNO, GGT 525 mU/mL, phosphate buffer 0.1 M pH 8.0, GlyGly 4.5 mM, Cu(SO4) 100 uM (curve a)) [s]	change of absorbance at 334 nm ([2]; adding only 50 uM of CuSO4 (curve b))	half life in the hematic area [3]
N[C@@H](CCC(=O)N[C@@H](CS)C(=O)NCC(=O)O)C(=O)O [GSH, reduced glutathione]	5 to 10	–	–	–
N[C@@H](CCC(=O)N[C@@H](CSN=O)C(=O)NCC(=O)O)C(=O)O [GSNO, S-nitrosoglutathione]	28	450	no decrease is observed	–
[N]=O [NO, Nitric oxide]	–	–	–	about 2 ms
